Reference: patent publication US9969738B2, “N-acyl-(3-substituted)-5,6,7,8-tetrahydro-[1,2,4]triazolo[4,3-a]pyrazines as selective NK-3 receptor antagonists, pharmaceutical composition, methods for use in NK-3 receptor-mediated disorders” (EUROSCREEN SA, priority 2013, dated 2018)

Tests used:
human NK-3 receptor [1] = target: T1, human NK-3 receptor (Homo sapiens (Human), UniProt P29371); assay: Aequorin functional assay with human NK-3 receptor (antagonist testing); assay type: cell-based; conditions: CHO cells expressing human NK-3 receptor and apoaequorin; agonist NKA at EC80 (3 nM); read-out: hNK-3 - AEQ (antagonist IC50)
Procedure: Aequorin Assay with Human NK-3 Receptor
Changes in intracellular calcium levels are a recognized indicator of G protein-coupled receptor activity. The efficacy of compounds of the invention to inhibit NKA-mediated NK-3 receptor activation was assessed by an in vitro Aequorin functional assay. Chinese Hamster Ovary recombinant cells expressing the human NK-3 receptor and a construct that encodes the photoproteinapoaequorin were used for this assay. In the presence of the cofactor coelenterazine, apoaequorin emits a measurable luminescence that is proportional to the amount of intracellular (cytoplasmic) free calcium.
The antagonist activity of compounds of the invention is measured following pre-incubation (3 minutes) of the compound (at various concentrations) with the cells, followed by addition of the reference agonist (NKA) at a final concentration equivalent to the EC80 (3 nM) and recording of emitted light (FDSS 6000 Hamamatsu) over the subsequent 90-second period. The intensity of the emitted light is integrated using the reader software. Compound antagonist activity is measured based on the concentration-dependent inhibition of the luminescence response to the addition of Neurokinin A.
The IC50 values shown in table 2 indicate that compounds of the invention are potent NK-3 antagonist compounds.

human NK-3 receptor [2] = target: T1, human NK-3 receptor; assay: 3H-SB222200 binding competition assay with human NK-3 receptor; conditions: CHO cell membranes, 5 nM 3H-SB222200; Ki by Cheng-Prusoff; read-out: hNK-3 (Ki)
Procedure: The affinity of compounds of the invention for the human NK-3 receptor was determined by measuring the ability of compounds of the invention to competitively and reversibly displace a well-characterized NK-3 radioligand in a concentration-dependent manner.
^3H-SB222200 Binding Competition Assay with Human NK-3 Receptor
The ability of compounds of the invention to inhibit the binding of the NK-3 receptor selective antagonist ^3H-SB222200 was assessed by an in vitro radioligand binding assay. Membranes were prepared from Chinese hamster ovary recombinant cells stably expressing the human NK-3 receptor. The membranes were incubated with 5 nM ^3H-SB222200 (ARC) in a HEPES 25 mM/NaCl 0.1M/CaCl2 1 mM/MgCl2 5 mM/BSA 0.5%/Saponin 10 μg/ml buffer at pH 7.4 and various concentrations of compounds of the invention. The amount of ^3H-SB222200 bound to the receptor was determined after filtration by the quantification of membrane associated radioactivity using the TopCount-NXT reader (Packard).

human NK-1 receptor = human NK-1 receptor (Homo sapiens (Human), UniProt P25103); assay: Selectivity assay: [3H] substance P binding to human NK-1 receptor; conditions: CHO cell membranes, 2 nM [3H] substance P; read-out: hNK-1 (Ki)
Procedure: (§1) Selectivity of the compounds of the invention was determined over the other human NK receptors, namely NK-1 and NK-2 receptors.
The affinity of compounds of the invention for the NK-1 receptor was evaluated in CHO recombinant cells which express the human NK-1 receptor. Membrane suspensions were prepared from these cells. The following radioligand: [^3H] substance P (PerkinElmer Cat#NET111520) was used in this assay. Binding assays were performed in a 50 mM Tris/5 mM MnCl2/150 mM NaCl/0.1% BSA at pH 7.4. Binding assays consisted of 25 μl of membrane suspension (approximately 5 μg of protein/well in a 96 well plate), 50 μl of compound or reference ligand (Substance P) at increasing concentrations (diluted in assay buffer) and 2 nM [^3H] substance P. The plate was incubated 60 min at 25° C. in a water bath and then filtered over GF/C filters (Perkin Elmer, 6005174, presoaked in 0.5% PEI for 2 h at room temperature) with a Filtration unit (Perkin Elmer). The radioactivity retained on the filters was measured by using the TopCount-NXT reader (Packard).

human NK-2 receptor = human NK-2 receptor (Homo sapiens (Human), UniProt P21452); assay: Selectivity assay: [125I]-Neurokinin A binding to human NK-2 receptor; conditions: CHO cell membranes, 0.1 nM [125I]-Neurokinin A; read-out: hNK-2 (Ki)
Procedure: as §1
The affinity of compounds of the invention for the NK-2 receptor was evaluated in CHO recombinant cells which express the human NK-2 receptor. Membrane suspensions were prepared from these cells. The following radioligand [^125I]-Neurokinin A (PerkinElmer Cat#NEX252) was used in this assay. Binding assays were performed in a 25 mM HEPES/1 mM CaCl2/5 mM MgCl2/0.5% BSA/10 μg/ml saponin, at pH 7.4. Binding assays consisted of 25 μl of membrane suspension (approximately 3.75 μg of protein/well in a 96 well plate), 50 μl of compound or reference ligand (Neurokinin A) at increasing concentrations (diluted in assay buffer) and 0.1 nM [^125I]-Neurokinin A. The plate was incubated 60 min at 25° C. in a water bath and then filtered over GF/C filters (Perkin Elmer, 6005174, presoaked in assay buffer without saponine for 2 h at room temperature) with a Filtration unit (Perkin Elmer). The radioactivity retained on the filters was measured by using the TopCount-NXT reader (Packard).

circulating LH levels = assay: Castrated male rat model, circulating levels of luteinizing hormone (LH), oral dosing; assay type: in vivo; conditions: castrated male SD rats, single oral dose less than or equal to 30 mg/kg, p<0.05
Procedure: In Vivo Assay to Assess Compound Activity in Rat (Oral Dosing) The effect of compounds of the invention to inhibit luteinizing hormone (LH) secretion is determined by the following biological studies. Castrated Male Rat Model to Assess the Effect of Compound of Invention on Circulating Levels of Luteinizing Hormone (LH) In humans and rodents, castration is well-precedented to permit heightened, persistent GnRH signaling and consequent elevation of circulating LH. Thus, a castrated rat model is used to provide a broad index for measurement of LH inhibition as a marker of test compound inhibition of the GnRH signaling pathway. Castrated adult male Sprague-Dawley (SD) rats (150-175 g,) were purchased from Janvier (St Berthevin, France). All animals were housed 2 per cage in a temperature-controlled room (22±2° C.) and 50±5% relative humidity with a 12 hour/12 hour light/dark cycles (lights off at 6 h00 pm). The animals were allowed 3 weeks of postoperative recovery prior to study. Animals were handled on a daily basis. Standard diet and tap water were provided ad libitum. Animal cage litters were changed once a week. On the study day, animals were acclimated to the procedure room for a period of one hour prior to the initiation of the experiment. […] Serum LH levels were determined using radioimmunoas say kit from RIAZEN—Rat LH, Zentech (Liège, Belgium). […]

hERG channel = hERG channel (Homo sapiens (Human), UniProt Q12809); assay: hERG inhibition assay (manual patch-clamp, HEK 293 cells); assay type: cell-based; conditions: 5 minutes of exposure, read-out: CardioSafety (hERG IC50)
Procedure: IKr current inhibition accounts for the vast majority of known cases of drug-induced QT-prolongation. […] Whole-cell currents (acquisition by manual patch-clamp) elicited during a voltage pulse were recorded in baseline conditions and following application of tested compounds (5 minutes of exposure). The concentrations of tested compounds (0.3 μM; 3 μM; 10 μM; 30 μM) reflect a range believed to exceed the concentrations at expected efficacy doses in preclinical models. […] The current density recorded were normalized against the baseline conditions and corrected for solvent effect and time-dependent current run-down using experimental design in test compound free conditions.

[3] = Determination of plasma protein binding (rapid equilibrium dialysis); assay type: in vitro ADME; conditions: bound drug fraction to plasma protein; equilibrium dialysis 4 hours at 37° C.
Excerpt: Determination of Plasma Protein Binding
The pharmacokinetic and pharmacodynamic properties of chemicals/drugs are largely a function of the reversible binding of chemicals to plasma or serum proteins. […] Consequently, the extent of the plasma protein binding (PPB) of a compound influences its action as well as its distribution and elimination.
The determination of plasma protein binding (PPB) of a compound is enabled by equilibrium dialysis, an accepted and standard method for reliable estimation of the non-bound drug fraction in plasma. RED (Rapid Equilibrium Dialysis) device insert is made of two side-by-side chambers separated by an O-ring-sealed vertical cylinder of dialysis membrane (MWCO ˜8,000). […] After 4 hours incubation at 37° C. under shaking, an aliquot is removed from each chamber and analyzed by a LC-MS/MS procedure enables the determination of both free and bound drug.
The “free fraction” may be calculated as 100%−% rPPB (i.e. the complementary percentage of that disclosed in Table 4, corresponding to the drug concentration that is unbound and therefore available to engage biological target and elicit pharmacological activity).

T1 sequence (P29371 whole entry): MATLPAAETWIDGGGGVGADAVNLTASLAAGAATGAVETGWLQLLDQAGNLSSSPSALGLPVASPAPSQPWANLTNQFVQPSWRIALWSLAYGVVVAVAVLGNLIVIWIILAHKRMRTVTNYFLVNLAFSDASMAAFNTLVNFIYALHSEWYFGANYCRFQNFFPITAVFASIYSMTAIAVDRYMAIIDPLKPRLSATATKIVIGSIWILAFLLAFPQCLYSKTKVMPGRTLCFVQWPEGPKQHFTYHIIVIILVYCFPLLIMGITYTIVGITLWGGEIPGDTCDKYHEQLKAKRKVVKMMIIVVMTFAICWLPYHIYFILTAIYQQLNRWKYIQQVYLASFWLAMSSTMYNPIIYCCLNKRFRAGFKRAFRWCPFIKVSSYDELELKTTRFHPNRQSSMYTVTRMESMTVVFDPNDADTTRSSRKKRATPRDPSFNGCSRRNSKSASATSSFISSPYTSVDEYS
Chain of human NK-1 receptor (P25103 whole entry): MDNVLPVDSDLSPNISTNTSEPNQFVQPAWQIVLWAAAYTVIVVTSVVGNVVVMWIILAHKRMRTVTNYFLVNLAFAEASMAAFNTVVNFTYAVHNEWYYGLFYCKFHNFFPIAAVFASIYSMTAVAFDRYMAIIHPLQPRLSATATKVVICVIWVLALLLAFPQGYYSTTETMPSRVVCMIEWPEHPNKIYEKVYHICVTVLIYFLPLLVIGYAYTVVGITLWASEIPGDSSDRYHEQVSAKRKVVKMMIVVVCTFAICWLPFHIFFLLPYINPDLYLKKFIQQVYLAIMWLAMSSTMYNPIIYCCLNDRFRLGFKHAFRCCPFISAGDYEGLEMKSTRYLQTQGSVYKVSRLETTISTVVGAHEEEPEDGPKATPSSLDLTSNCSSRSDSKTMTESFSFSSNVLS
Chain of human NK-2 receptor (P21452 whole entry): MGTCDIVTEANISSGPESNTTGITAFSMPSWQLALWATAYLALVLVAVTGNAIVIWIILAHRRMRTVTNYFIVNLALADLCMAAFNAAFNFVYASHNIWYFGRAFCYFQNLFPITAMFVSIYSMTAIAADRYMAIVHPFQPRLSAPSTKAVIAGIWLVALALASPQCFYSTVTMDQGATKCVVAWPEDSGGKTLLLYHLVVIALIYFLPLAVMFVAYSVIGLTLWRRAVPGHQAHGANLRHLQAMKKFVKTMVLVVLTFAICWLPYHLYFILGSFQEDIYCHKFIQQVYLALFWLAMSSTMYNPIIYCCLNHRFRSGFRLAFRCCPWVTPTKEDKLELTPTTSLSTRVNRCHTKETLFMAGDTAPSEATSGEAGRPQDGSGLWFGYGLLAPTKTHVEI
Chain of hERG channel (Q12809 whole entry): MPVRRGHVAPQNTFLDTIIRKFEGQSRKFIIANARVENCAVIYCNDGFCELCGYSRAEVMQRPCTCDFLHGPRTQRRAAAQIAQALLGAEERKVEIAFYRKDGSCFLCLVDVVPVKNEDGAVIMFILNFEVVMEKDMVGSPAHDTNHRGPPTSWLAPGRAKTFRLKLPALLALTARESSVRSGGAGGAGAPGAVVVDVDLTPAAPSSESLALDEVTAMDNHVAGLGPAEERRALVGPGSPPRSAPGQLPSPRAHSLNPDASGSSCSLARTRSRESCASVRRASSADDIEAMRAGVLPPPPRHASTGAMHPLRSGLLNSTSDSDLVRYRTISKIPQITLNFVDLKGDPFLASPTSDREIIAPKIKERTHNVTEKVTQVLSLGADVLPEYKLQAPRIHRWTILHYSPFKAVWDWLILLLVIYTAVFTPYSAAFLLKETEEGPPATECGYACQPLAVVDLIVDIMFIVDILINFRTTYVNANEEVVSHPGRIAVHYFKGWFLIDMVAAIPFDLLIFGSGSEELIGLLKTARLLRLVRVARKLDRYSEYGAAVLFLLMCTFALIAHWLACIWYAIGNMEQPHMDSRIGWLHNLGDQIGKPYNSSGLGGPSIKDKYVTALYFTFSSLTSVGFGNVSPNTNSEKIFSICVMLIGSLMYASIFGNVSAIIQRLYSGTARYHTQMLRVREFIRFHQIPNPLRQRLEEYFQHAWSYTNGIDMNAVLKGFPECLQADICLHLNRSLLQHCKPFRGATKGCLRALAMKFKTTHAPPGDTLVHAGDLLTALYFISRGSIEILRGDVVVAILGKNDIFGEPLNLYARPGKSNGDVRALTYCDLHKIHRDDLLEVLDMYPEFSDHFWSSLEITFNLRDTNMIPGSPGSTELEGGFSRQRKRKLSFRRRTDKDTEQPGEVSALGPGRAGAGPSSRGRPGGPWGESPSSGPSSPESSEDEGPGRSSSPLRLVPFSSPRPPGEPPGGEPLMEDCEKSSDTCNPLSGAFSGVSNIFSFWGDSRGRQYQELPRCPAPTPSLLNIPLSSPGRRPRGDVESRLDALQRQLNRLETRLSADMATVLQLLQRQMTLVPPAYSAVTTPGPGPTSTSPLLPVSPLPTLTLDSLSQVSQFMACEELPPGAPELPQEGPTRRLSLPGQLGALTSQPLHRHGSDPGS

Structure (SMILES) | IC50 (human NK-3 receptor [1]) | Ki (human NK-3 receptor [2]) | Ki (human NK-1 receptor) | Ki (human NK-2 receptor) | Exposure (% rPPB) [3] | suppression of circulating LH levels (circulating LH levels) | IC50 (hERG channel)
Cc1nsc(-c2nnc3n2CCN(C(=O)c2ccc(F)cc2)C3)n1 [Compound 1, (4-fluorophenyl)(3-(3-methyl-1,2,4-thiadiazol-5-yl)-5,6-dihydro-[1,2,4]triazolo[4,3-a]pyrazin-7(8H)-yl)methanone] | 180 nM | 140 nM | > 30000 nM | > 30000 nM | – | significantly suppressed circulating LH levels | –
Cc1nsc(-c2nnc3n2CCN(C(=O)c2ccc(F)c(F)c2)C3)n1 [Compound 5, (3,4-difluorophenyl)(3-(3-methyl-1,2,4-thiadiazol-5-yl)-5,6-dihydro-[1,2,4]triazol[4,3-a]pyrazin-7(8H)-yl)methanone] | 250 nM | 170 nM | > 30000 nM | > 30000 nM | 28% | – | –
Cc1nsc(-c2nnc3n2CCN(C(=O)c2cc(F)c(F)c(F)c2)C3)n1 [Compound 6, (3-(3-methyl-1,2,4-thiadiazol-5-yl)-5,6-dihydro-[1,2,4]triazolo[4,3-a]pyrazin-7(8H)-yl)(3,4,5-trifluorophenyl)methanone] | 330 nM | 170 nM | > 30000 nM | > 30000 nM | 27% | – | –
Cc1nsc(-c2nnc3n2CCN(C(=O)c2ccc(F)c(F)c2F)C3)n1 [Compound 7, (3-(3-methyl-1,2,4-thiadiazol-5-yl)-5,6-dihydro-[1,2,4]triazolo[4,3-a]pyrazin-7(8H)-yl)(2,3,4-trifluorophenyl)methanone] | 470 nM | 240 nM | > 30000 nM | > 30000 nM | 25% | – | –

Continued, in another order:

IC50 (human NK-3 receptor [1]) | Ki (human NK-3 receptor [2]) | Ki (human NK-1 receptor) | Ki (human NK-2 receptor) | Exposure (% rPPB) [3] | Structure (SMILES) | suppression of circulating LH levels (circulating LH levels) | IC50 (hERG channel)
140 nM | 99 nM | > 30000 nM | > 30000 nM | 49% | Cc1nsc(-c2nnc3n2CCN(C(=O)c2ccc(Cl)cc2)C3)n1 [Compound 2, (4-chlorophenyl)(3-(3-methyl-1,2,4-thiadiazol-5-yl)-5,6-dihydro-[1,2,4]triazol[4,3-a]pyrazin-7(8H)-yl)methanone] | – | 35000 nM
140 nM | 93 nM | > 30000 nM | > 30000 nM | 54% | Cc1nsc(-c2nnc3n2CCN(C(=O)c2ccc(Cl)c(F)c2)C3)n1 [Compound 3, (4-chloro-3-fluorophenyl)(3-(3-methyl-1,2,4-thiadiazol-5-yl)-5,6-dihydro-[1,2,4]triazol[4,3-a]pyrazin-7(8H)-yl)methanone] | – | –
200 nM | 130 nM | > 30000 nM | > 30000 nM | 52% | Cc1nsc(-c2nnc3n2CCN(C(=O)c2ccc(F)c(Cl)c2)C3)n1 [Compound 4, (3-chloro-4-fluorophenyl)(3-(3-methyl-1,2,4-thiadiazol-5-yl)-5,6-dihydro-[1,2,4]triazol[4,3-a]pyrazin-7(8H)-yl)methanone] | – | –
